Data from PubChem BioAssay (NCI).
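Briefly, cells in 96-well plates were exposed to five compound concentrations for 48 h, and endpoints were estimated by linear interpolation. Definition used: TGI = concentration required for complete inhibition of growth.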

Key:
Experiment in all cases: DTP human tumour cell line panel, 48 h
[1] = test system: 786-0 renal
[2] = test system: A498 renal
[3] = test system: A549 NSCLC
[4] = test system: ACHN renal
[5] = test system: CAKI-1 renal
[6] = test system: CCRF-CEM leukemia
[7] = test system: COLO 205 colon
[8] = test system: DLD-1 colon
[9] = test system: DMS 114 small cell lung
[10] = test system: DMS 273 small cell lung
[11] = test system: EKVX NSCLC
[12] = test system: HCC-2998 colon
[13] = test system: HCT-116 colon
[14] = test system: HCT-15 colon
[15] = test system: HOP-18 NSCLC
[16] = test system: HOP-62 NSCLC
[17] = test system: HOP-92 NSCLC
[18] = test system: HT29 colon
[19] = test system: IGROV1 ovarian
[20] = test system: K-562 leukemia
[21] = test system: KM12 colon
[22] = test system: KM20L2 colon
[23] = test system: LOX IMVI melanoma
[24] = test system: LXFL 529 NSCLC
[25] = test system: M14 melanoma
[26] = test system: M19-MEL melanoma
[27] = test system: MALME-3M melanoma
[28] = test system: MOLT-4 leukemia
[29] = test system: NCI-H226 lung
[30] = test system: NCI-H23 lung
[31] = test system: NCI-H460 lung
[32] = test system: NCI-H522 lung
[33] = test system: OVCAR-3 ovarian
[34] = test system: OVCAR-4 ovarian
[35] = test system: OVCAR-5 ovarian
[36] = test system: OVCAR-8 ovarian
[37] = test system: RXF 393 renal
[38] = test system: SF-268 CNS
[39] = test system: SF-295 CNS
[40] = test system: SF-539 CNS
[41] = test system: SK-MEL-2 melanoma
[42] = test system: SK-MEL-28 melanoma
[43] = test system: SK-MEL-5 melanoma
[44] = test system: SK-OV-3 ovarian
[45] = test system: SN12C renal
[46] = test system: SNB-19 CNS
[47] = test system: SNB-75 CNS
[48] = test system: SNB-78 CNS
[49] = test system: SW-620 colon
[50] = test system: TK-10 renal
[51] = test system: U251 CNS
[52] = test system: UACC-257 melanoma
[53] = test system: UACC-62 melanoma
[54] = test system: UO-31 renal
[55] = test system: XF 498 CNS
[56] = test system: HL-60(TB) leukemia
[57] = test system: RPMI-8226 leukemia
[58] = test system: SR leukemia
[59] = test system: RXF-631 renal

Structure (SMILES): S=C(N/N=C/c1ccco1)NC12CC3CC(CC(C3)C1)C2
- TGI [1]: > 100 µM
- TGI [2]: > 100 µM
- TGI [3]: > 100 µM
- TGI [4]: > 100 µM
- TGI [5]: > 100 µM
- TGI [6]: > 100 µM
- TGI [7]: 33.4 µM
- TGI [8]: > 100 µM
- TGI [9]: > 100 µM
- TGI [10]: > 100 µM
- TGI [11]: > 100 µM
- TGI [12]: > 100 µM
- TGI [13]: > 100 µM
- TGI [14]: > 100 µM
- TGI [15]: > 100 µM
- TGI [16]: > 100 µM
- TGI [17]: > 100 µM
- TGI [18]: > 100 µM
- TGI [19]: > 100 µM
- TGI [20]: > 100 µM
- TGI [21]: > 100 µM
- TGI [22]: > 100 µM
- TGI [23]: > 100 µM
- TGI [24]: > 100 µM
- TGI [25]: > 100 µM
- TGI [26]: > 100 µM
- TGI [27]: > 100 µM
- TGI [28]: > 100 µM
- TGI [29]: > 100 µM
- TGI [30]: > 100 µM
- TGI [31]: > 100 µM
- TGI [32]: > 100 µM
- TGI [33]: > 100 µM
- TGI [34]: > 100 µM
- TGI [35]: > 100 µM
- TGI [36]: > 100 µM
- TGI [37]: > 100 µM
- TGI [38]: > 100 µM
- TGI [39]: > 100 µM
- TGI [40]: > 100 µM
- TGI [41]: > 100 µM
- TGI [42]: > 100 µM
- TGI [43]: > 100 µM
- TGI [44]: > 100 µM
- TGI [45]: > 100 µM
- TGI [46]: > 100 µM
- TGI [47]: > 100 µM
- TGI [48]: > 100 µM
- TGI [49]: > 100 µM
- TGI [50]: > 100 µM
- TGI [51]: > 100 µM
- TGI [52]: > 100 µM
- TGI [53]: > 100 µM
- TGI [54]: > 100 µM
- TGI [55]: > 100 µM

Structure (SMILES): O=C1CCCC/C(=C/c2ccccc2)N1
- TGI [1]: > 100 µM
- TGI [2]: > 100 µM
- TGI [3]: > 100 µM
- TGI [4]: > 100 µM
- TGI [5]: > 100 µM
- TGI [6]: > 100 µM
- TGI [7]: > 100 µM
- TGI [8]: > 100 µM
- TGI [9]: > 100 µM
- TGI [10]: > 100 µM
- TGI [11]: > 100 µM
- TGI [12]: > 100 µM
- TGI [13]: > 100 µM
- TGI [14]: > 100 µM
- TGI [56]: > 100 µM
- TGI [15]: > 100 µM
- TGI [16]: > 100 µM
- TGI [17]: > 100 µM
- TGI [18]: > 100 µM
- TGI [19]: > 100 µM
- TGI [20]: > 100 µM
- TGI [21]: > 100 µM
- TGI [22]: > 100 µM
- TGI [23]: > 100 µM
- TGI [24]: > 100 µM
- TGI [25]: > 100 µM
- TGI [26]: > 100 µM
- TGI [27]: > 100 µM
- TGI [28]: > 100 µM
- TGI [29]: > 100 µM
- TGI [30]: > 100 µM
- TGI [31]: > 100 µM
- TGI [32]: > 100 µM
- TGI [33]: > 100 µM
- TGI [34]: > 100 µM
- TGI [35]: > 100 µM
- TGI [36]: > 100 µM
- TGI [57]: > 100 µM
- TGI [37]: > 100 µM
- TGI [38]: > 100 µM
- TGI [39]: > 100 µM
- TGI [40]: > 100 µM
- TGI [41]: > 100 µM
- TGI [42]: > 100 µM
- TGI [44]: > 100 µM
- TGI [45]: > 100 µM
- TGI [47]: > 100 µM
- TGI [48]: > 100 µM
- TGI [58]: > 100 µM
- TGI [49]: > 100 µM
- TGI [50]: > 100 µM
- TGI [51]: > 100 µM
- TGI [52]: > 100 µM
- TGI [53]: > 100 µM
- TGI [54]: > 100 µM
- TGI [55]: > 100 µM

Structure (SMILES): CCOP(=O)(Cc1ccc(CP(=O)(OCC)OCC)n1C)OCC
- TGI [1]: > 100 µM
- TGI [3]: > 100 µM
- TGI [4]: > 100 µM
- TGI [5]: > 100 µM
- TGI [6]: > 100 µM
- TGI [7]: > 100 µM
- TGI [8]: > 100 µM
- TGI [9]: > 100 µM
- TGI [10]: > 100 µM
- TGI [11]: > 100 µM
- TGI [12]: > 100 µM
- TGI [14]: > 100 µM
- TGI [56]: > 100 µM
- TGI [15]: > 100 µM
- TGI [16]: > 100 µM
- TGI [17]: > 100 µM
- TGI [18]: > 100 µM
- TGI [19]: > 100 µM
- TGI [20]: > 100 µM
- TGI [21]: > 100 µM
- TGI [22]: > 100 µM
- TGI [23]: > 100 µM
- TGI [24]: > 100 µM
- TGI [25]: > 100 µM
- TGI [26]: > 100 µM
- TGI [27]: > 100 µM
- TGI [28]: > 100 µM
- TGI [30]: > 100 µM
- TGI [31]: > 100 µM
- TGI [32]: > 100 µM
- TGI [33]: > 100 µM
- TGI [34]: > 100 µM
- TGI [35]: > 100 µM
- TGI [36]: > 100 µM
- TGI [57]: > 100 µM
- TGI [37]: > 100 µM
- TGI [59]: > 100 µM
- TGI [38]: > 100 µM
- TGI [39]: > 100 µM
- TGI [40]: > 100 µM
- TGI [41]: > 100 µM
- TGI [42]: > 100 µM
- TGI [43]: > 100 µM
- TGI [44]: > 100 µM
- TGI [45]: > 100 µM
- TGI [46]: > 100 µM
- TGI [47]: > 100 µM
- TGI [49]: > 100 µM
- TGI [50]: > 100 µM
- TGI [51]: > 100 µM
- TGI [52]: > 100 µM
- TGI [53]: > 100 µM
- TGI [54]: > 100 µM

Structure (SMILES): CS(=O)(=O)N/N=C/CN1C(=O)c2ccccc2C1=O
- TGI [1]: > 100 µM
- TGI [2]: > 100 µM
- TGI [3]: > 100 µM
- TGI [4]: > 100 µM
- TGI [5]: > 100 µM
- TGI [6]: > 100 µM
- TGI [7]: > 100 µM
- TGI [8]: > 100 µM
- TGI [9]: > 100 µM
- TGI [10]: > 100 µM
- TGI [11]: > 100 µM
- TGI [12]: > 100 µM
- TGI [13]: > 100 µM
- TGI [14]: > 100 µM
- TGI [56]: > 100 µM
- TGI [15]: > 100 µM
- TGI [16]: > 100 µM
- TGI [18]: > 100 µM
- TGI [19]: > 100 µM
- TGI [20]: > 100 µM
- TGI [21]: > 100 µM
- TGI [22]: > 100 µM
- TGI [24]: > 100 µM
- TGI [25]: > 100 µM
- TGI [26]: > 100 µM
- TGI [27]: > 100 µM
- TGI [28]: > 100 µM
- TGI [29]: > 100 µM
- TGI [30]: > 100 µM
- TGI [31]: > 100 µM
- TGI [32]: > 100 µM
- TGI [33]: > 100 µM
- TGI [34]: > 100 µM
- TGI [35]: > 100 µM
- TGI [36]: > 100 µM
- TGI [57]: > 100 µM
- TGI [38]: > 100 µM
- TGI [39]: > 100 µM
- TGI [40]: > 100 µM
- TGI [41]: > 100 µM
- TGI [42]: > 100 µM
- TGI [43]: > 100 µM
- TGI [44]: > 100 µM
- TGI [45]: > 100 µM
- TGI [46]: > 100 µM
- TGI [47]: > 100 µM
- TGI [48]: > 100 µM
- TGI [58]: > 100 µM
- TGI [49]: > 100 µM
- TGI [50]: > 100 µM
- TGI [51]: > 100 µM
- TGI [52]: > 100 µM
- TGI [53]: > 100 µM
- TGI [54]: > 100 µM
- TGI [55]: > 100 µM
